Here are results for 14 molecules from ChEMBL document CHEMBL1201862, “PubChem BioAssay data set” (2004).

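Cells were grown in 96-well plates and exposed to each compound for 48 hours at five concentrations; endpoints were interpolated linearly between bracketing concentrations, or set to the highest concentration if not reached. GI50 is the concentration that inhibits growth by half.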 Activity calls are given as the source filed them. Rule as the data show it: active = GI50 up to about 1.1 µM and inactive = higher.

Holding throughout (experiment): NCI-60 cell line screen, 48 h
Experiment [1] concerns A549.
The test system of experiment [2] is ACHN.
Experiment [3] deals with DLD-1.
The subject of experiment [4] is DMS-273.
Experiment [5] deals with HCT-116.
Experiment [6] has as its system LXFL 529.
Experiment [7] deals with M14.
Experiment [8] concerns NCI-H23.
The test system of experiment [9] is NCI-H460.
The test system of experiment [10] is NCI-H522.
In experiment [11] the test system is OVCAR-4.
The subject of experiment [12] is SF-268.
Experiment [13] deals with SK-MEL-5.
Experiment [14] deals with SK-OV-3.
The subject of experiment [15] is NCI-H226.
In experiment [16] the test system is KM-20L2.
The test system of experiment [17] is Hs-578T.
Experiment [18] has as its system MDA-N.
Experiment [19] deals with PC-3.
The subject of experiment [20] is T47D.

Regarding `O=c1ccc(=O)c2c(=O)c3ccccc3c(=O)c1=2`, the GI50 was 37.4 µM (inactive) in [1]; 60.3 µM (inactive) in experiment [2]; 38.2 µM (inactive) in experiment [3]; 46.7 µM (inactive) in experiment [4]; 20.7 µM (inactive) in experiment [5]; > 100 µM (inactive) in experiment [6]. Besides, the GI50 is 46 µM (inactive) in experiment [7]; 70.3 µM (inactive) in [8]; 29.3 µM (inactive) in experiment [9]; 29.8 µM (inactive) in experiment [10]; 61 µM (inactive) in experiment [11]; 35.6 µM (inactive) in experiment [12]. For the same molecule, the GI50 in experiment [13] is 15.7 µM (inactive); in experiment [14] it was > 100 µM (inactive).
Consider `O=S1(=O)OCCOS(=O)(=O)C1(Br)Br`, for which the GI50 in experiment [1], in experiment [3], in [4], in experiment [5], in experiment [6] and in experiment [7] was > 100 µM (inactive) each time. Further, the GI50 in experiment [15] is 0.375 µM (active); in experiment [8], > 100 µM (inactive); in experiment [10], > 100 µM (inactive); in [11], > 100 µM (inactive); in experiment [12], > 100 µM (inactive); in experiment [13] it was > 100 µM (inactive). Also, the GI50 in [14] was > 100 µM (inactive).
Turning to `[O-]/N=[N+](/[O-])C1CCCCC1=[N+]1CCOCC1` (configuration not stated), the GI50 in [1], in experiment [2], in [5], in experiment [6], in experiment [7] and in experiment [15] was > 100 µM (inactive) in each case. Moreover, the GI50 in [8], in [9], in [10], in experiment [11], in [12] and in experiment [14] was > 100 µM (inactive) throughout.
Turning to `CN1c2ccccc2N(C)C23N(C)c4ccccc4N(C)C12N(C)c1ccccc1N3C` (configuration not stated), the GI50 in experiment [1], in experiment [2], in experiment [3], in [4], in experiment [5] and in experiment [16] was > 100 µM (inactive) throughout. Moreover, the GI50 in experiment [7], in experiment [15], in [8], in experiment [9], in experiment [10] and in experiment [12] was > 100 µM (inactive) each time. Also, in experiment [13], the GI50 was > 100 µM (inactive).
`CC1=NOC(=O)/C1=C/c1ccc([N+](=O)[O-])cc1`: the GI50 in experiment [1], in [2], in [3], in experiment [4], in [5] and in [16] was > 100 µM (inactive) throughout. The GI50 in [7], in experiment [15], in [8], in experiment [9], in [10] and in experiment [11] was > 100 µM (inactive) throughout. Moreover, the GI50 in experiment [12], in experiment [13] and in [14] was > 100 µM (inactive) each time.
`O=[N+]([O-])c1nccn1COCCF`: the GI50 in experiment [1], in experiment [2], in [3], in experiment [5], in [16] and in [6] was > 100 µM (inactive) throughout. The GI50 in experiment [7], in experiment [15], in [8], in experiment [9], in [10] and in experiment [11] was > 100 µM (inactive) each time. Moreover, the GI50 in experiment [12], in [13] and in [14] was > 100 µM (inactive) in each case.
On to `COc1ccc(-c2cc(O)c3cc(Cl)ccc3n2)cc1`, for which the GI50 in [2], in [3], in experiment [5], in [16], in [6] and in experiment [7] was > 100 µM (inactive) throughout. For the same molecule, the GI50 in experiment [15], in experiment [8], in experiment [9], in experiment [10], in [11] and in experiment [12] was > 100 µM (inactive) each time. Further, the GI50 in [13] and in experiment [14] was > 100 µM (inactive) in each case.
On to `CC/C(SC)=[N+](\C)[O-]`, for which the GI50 in experiment [1] was > 100 µM (inactive); in [2], > 100 µM (inactive); in [3] it was > 45.9 µM (inactive); in experiment [5] it was > 46.9 µM (inactive); in experiment [16], > 100 µM (inactive); in experiment [6], > 100 µM (inactive). In addition, the GI50 in [7] is > 100 µM (inactive); in experiment [15], > 100 µM (inactive); in experiment [8], > 100 µM (inactive); in experiment [9], > 100 µM (inactive); in experiment [10] it was > 43.1 µM (inactive); in [11], > 100 µM (inactive). For the same molecule, the GI50 in experiment [12], in experiment [13] and in experiment [14] was > 100 µM (inactive) each time.
In the case of `CC1=CC2CC(C)C1(C)CCc1ccoc12` (configuration not stated), the GI50 in experiment [1], in experiment [2], in [3], in experiment [4], in experiment [5] and in experiment [16] was > 100 µM (inactive) throughout. The GI50 in experiment [6], in experiment [7], in experiment [8], in experiment [9], in experiment [11] and in experiment [12] was > 100 µM (inactive) each time. Further, the GI50 in experiment [13] and in experiment [14] was > 100 µM (inactive) throughout.
For the molecule `O=C(/C=C/c1ccc(-c2ccccc2)cc1)NCc1ccc(C(=O)NCCc2c[nH]c3ccccc23)cc1`, the GI50 was 19.4 µM (inactive) in [1]; 35.8 µM (inactive) in experiment [2]; 46.9 µM (inactive) in experiment [5]; 38.5 µM (inactive) in experiment [17]; 80.9 µM (inactive) in experiment [7]; 49.2 µM (inactive) in experiment [18]. Besides, the GI50 in experiment [15] is 24.4 µM (inactive); in [8] it was 22.1 µM (inactive); in [9], 31.7 µM (inactive); in [10], 21.3 µM (inactive); in experiment [11], 14.8 µM (inactive); in [19], 23.5 µM (inactive). Also, the GI50 in experiment [12] is 39.7 µM (inactive); in experiment [13], 26 µM (inactive); in experiment [14] it was 14.5 µM (inactive); in experiment [20], 22 µM (inactive).
For the molecule `CC(=O)NNc1nc(C)c(C(/C=C/c2ccc([N+](=O)[O-])cc2)=N/NC(N)=O)s1`, the GI50 in experiment [1], in experiment [2], in [5], in experiment [17], in experiment [7] and in experiment [18] was > 100 µM (inactive) each time. For the same molecule, the GI50 in [15], in [8], in experiment [9], in [10], in experiment [11] and in experiment [19] was > 100 µM (inactive) each time. The GI50 in experiment [12], in experiment [13], in [14] and in experiment [20] was > 100 µM (inactive) in each case.
As to `O=C1NC2CCC(C2)C1c1ccccc1` (configuration not stated), the GI50 in experiment [1], in experiment [2], in [3], in experiment [4], in experiment [6] and in experiment [7] was > 100 µM (inactive) in each case. Besides, the GI50 in experiment [15], in experiment [8], in experiment [9], in [11], in experiment [12] and in experiment [13] was > 100 µM (inactive) each time. Moreover, the GI50 in [14] is > 100 µM (inactive).
Consider `CN1CCc2cc(O)c3cc2C1Cc1ccc(cc1)Oc1cc(ccc1O)CC1c2c(cc4c(c2O3)OCO4)CCN1C` (configuration not stated), for which the GI50 was 45.7 µM (inactive) in experiment [1]; 28.7 µM (inactive) in experiment [2]; 75.3 µM (inactive) in [3]; 24.8 µM (inactive) in experiment [4]; 36.6 µM (inactive) in experiment [5]; 18.2 µM (inactive) in experiment [16]. Besides, the GI50 in experiment [7] was 16.8 µM (inactive); in experiment [15], 22.9 µM (inactive); in experiment [8], > 100 µM (inactive); in experiment [9] it was 46.2 µM (inactive); in [11] it was 28.8 µM (inactive); in experiment [12], 33.1 µM (inactive). Also, the GI50 in experiment [13] was 18.9 µM (inactive).
In the case of `O=C(CCc1nnc2s/c(=C\c3ccccc3Cl)c(=O)n12)Nc1cc(Cl)ccc1Cl`, the GI50 in experiment [1], in experiment [2], in experiment [3], in [5], in experiment [6] and in [7] was > 100 µM (inactive) each time. Also, the GI50 in experiment [15], in [8], in [9], in experiment [10], in [11] and in experiment [12] was > 100 µM (inactive) throughout. The GI50 in experiment [13] and in [14] was > 100 µM (inactive) each time.
